What was measured:
[1] = target: mutant HIV reverse transcriptases (Human immunodeficiency virus type 1, UniProt P12497, Y775L, cells depend on it); type: cell-based
[2] = target: mutant HIV reverse transcriptases (Human immunodeficiency virus type 1, UniProt P12497, Y768C, cells depend on it); type: cell-based
[3] = target: T1, wild-type HIV reverse transcriptase (Human immunodeficiency virus type 1 group M subtype B, UniProt P04585); experiment: Activity on wild type reverse transcriptase (Table 1 IC50 WT); type: biochemical
T1 construct: wild-type and four mutant HIV reverse transcriptases

[4] = tested on: wild type HIV-1; experiment: microbe, parasite or virus in culture; type: cell-based, human immunodeficiency virus type 1 (HIV-1); conditions: Human immunodeficiency virus 1, Hela-JC53, read-out: EC50 WT

| Compound | EC50 [1] | EC50 [2] | IC50 [3] | EC50 [4] |
| --- | --- | --- | --- | --- |
| COc1cccc2c(-n3c(Br)nnc3SCC(=O)Nc3ccc(C(=O)O)cc3Cl)cccc12 [compound 27] | > 0.1 µM | < 0.05 µM | < 0.05 µM | < 0.05 µM |
| CCc1ccc(-n2c(Br)nnc2SCC(=O)Nc2ccc(C(=O)NCCCCO)cc2Cl)c2ccccc12 [compound 137] | < 0.05 µM | < 0.05 µM | < 0.05 µM | < 0.05 µM |
| CCc1ccc(-n2c(Br)nnc2SCC(=O)Nc2ccc(C(=O)NCCN(C)C)cc2Cl)c2ccccc12 [compound 119] | < 0.05 µM | < 0.05 µM | < 0.05 µM | < 0.05 µM |
| NS(=O)(=O)c1ccc(NC(=O)CSc2nnc(C(F)F)n2-c2ccc(C3CC3)c3ccccc23)c(Cl)c1 [compound 44] | < 0.05 µM | < 0.05 µM | < 0.05 µM | < 0.05 µM |
| CCc1ccc(-n2c(Br)nnc2SCC(=O)Nc2ccc(C(=O)NCC(C)O)cc2Cl)c2ccccc12 (stereo not shown) [compound 128] | < 0.05 µM | < 0.05 µM | < 0.05 µM | < 0.05 µM |
| NS(=O)(=O)c1ccc(NC(=O)CSc2nnc(Br)n2-c2ccc3c4c(cccc24)CC3)c(Cl)c1 [compound 37] | < 0.05 µM | < 0.05 µM | < 0.05 µM | < 0.05 µM |
| CCc1ccc(-n2c(Br)nnc2SCC(=O)Nc2ccc(C(=O)N[C@H](C(=O)OC)C(C)C)cc2Cl)c2ccccc12 [compound 102] | < 0.05 µM | < 0.05 µM | 0.05 to 0.1 µM | < 0.05 µM |
| CCc1ccc(-n2c(Br)nnc2SCC(=O)Nc2ccc(C(=O)O)cc2Br)c2ccccc12 [compound 22] | 0.05 to 0.1 µM | < 0.05 µM | < 0.05 µM | < 0.05 µM |
| Cc1cc(C2CC2)c2ccccc2c1-n1c(Br)nnc1SCC(=O)Nc1ccc(S(N)(=O)=O)cc1Cl [compound 50] | < 0.05 µM | < 0.05 µM | < 0.05 µM | < 0.05 µM |
| CCc1ccc(-n2c(I)nnc2SCC(=O)Nc2ccc(S(N)(=O)=O)cc2Cl)c2ccccc12 [compound 70] | < 0.05 µM | < 0.05 µM | < 0.05 µM | < 0.05 µM |
| Cc1ccc2c(C)cc(C)c(-n3c(SCC(=O)Nc4ccc(S(N)(=O)=O)cc4Cl)nnc3C(F)F)c2n1 [compound 63] | < 0.05 µM | < 0.05 µM | < 0.05 µM | < 0.05 µM |
| CCOC(=O)CCNC(=O)c1ccc(NC(=O)CSc2nnc(Br)n2-c2ccc(C3CC3)c3ccccc23)c(Cl)c1 [compound 104] | < 0.05 µM | < 0.05 µM | < 0.05 µM | < 0.05 µM |
| CCc1ccc(-n2c(CF)nnc2SCC(=O)Nc2ccc(S(=O)(=O)NC)cc2Cl)c2ccccc12 [compound 55] | 0.05 to 0.1 µM | < 0.05 µM | 0.05 to 0.1 µM | < 0.05 µM |
| CCCCCCNC(=O)c1ccc(NC(=O)CSc2nnc(Br)n2-c2ccc(CC)c3ccccc23)c(Cl)c1 [compound 122] | 0.05 to 0.1 µM | < 0.05 µM | < 0.05 µM | < 0.05 µM |
| CCc1ccc(-n2c(Br)nnc2SCC(=O)Nc2ccc(C(=O)N[C@@H](CO)C(=O)OC)cc2Cl)c2ccccc12 [compound 140] | < 0.05 µM | < 0.05 µM | < 0.05 µM | < 0.05 µM |
| CCOC(=O)CN(C)C(=O)c1ccc(NC(=O)CSc2nnc(Br)n2-c2ccc(CC)c3ccccc23)c(Cl)c1 [compound 108] | < 0.05 µM | < 0.05 µM | < 0.05 µM | < 0.05 µM |
| O=C(O)CCNC(=O)c1ccc(NC(=O)CSc2nnc(Br)n2-c2ccc(C3CC3)c3ccccc23)c(Cl)c1 [compound 112] | > 0.1 µM | > 0.1 µM | < 0.05 µM | < 0.05 µM |
| O=C(CSc1nnc(Br)n1-c1ccc(C2CC2)cc1C(F)(F)F)Nc1ccc(C(=O)O)cc1Cl [compound 30] | > 0.1 µM | < 0.05 µM | < 0.05 µM | < 0.05 µM |
| Cc1ccc(-n2c(SCC(=O)Nc3ccc(C(=O)O)cc3Cl)nnc2C(F)F)c2c1CCCC2 [compound 2] | < 0.05 µM | < 0.05 µM | < 0.05 µM | < 0.05 µM |

From patent US8946273B2, “S-Triazolyl alpha-mercapto acetanilides as inhibitors of HIV reverse transcriptase” (priority 2011, dated 2015)
